{
  "source": "patent US10428159B2",
  "about": "“Blocking monoclonal antibodies to AGR2 and its receptor C4.4A” (Board of Regents, The University of Texas System, priority 2014, dated 2019)",
  "key": {"BxPC-3 cells": {"system": "BxPC-3 cells", "assay": "Apoptosis assay (Gem, rAGR2)", "type": "cell-based", "conditions": "BxPC-3, Gem 1 μM", "method": "FIGS. 7A-D. Extracellular rAGR2-mediated functions. (A) Pancreatic cancer cells (BxPC-3 and MiaPaCa-2) were used for these studies. Extracellular addition of rAGR2 caused a significant dose-dependent increase in proliferation (BxPC-3-3-fold increase; MiaPaCa-2-4-fold increase; p<0.05). Pancreatic cancer cells were plated (2×10^4 cells) with and without rAGR2 (0-100 nM) on a Boyden's chamber for migration studies (B) and on an invasion chamber for invasion studies (C). After 22 h, cells were fixed with methanol and stained by hematoxylin, and cells in 10 random fields at 100× magnification were photographed and counted. Extracellular addition of rAGR2 caused a significant dose-dependent increase in migration (BxPC-3-7-fold increase; MiaPaCa-2-3-fold increase) and invasion (BxPC-3-10-fold increase; MiaPaCa-2-3-fold increase). (D) For analysis of apoptosis, BxPC-3 cells were treated with and without Gem (1 μM) and AGR2 (100 nM). […] Data shown are mean±SE for 3 experiments (*p<0.05 vs. control).\nCell growth, migration, invasion and apoptosis assays. Wild-type and siRNA transfected PDAC cells were grown with rAGR2 (0-500 nM) in the presence and absence of antibodies (polyclonal commercial or newly developed mAbs) (1 μM). The medium was refreshed daily. Cell numbers were estimated after 48 h by MTS assay as described previously (Ramachandran et al., 2007). […]"}, "AsPC-1 cells [1]": {"system": "AsPC-1 cells", "assay": "Model 1 AsPC-1 aggressive cell model, orthotopic tumors", "type": "in vivo, athymic nude mice", "method": "In vivo studies. In vivo experiments were conducted with athymic nude mice (B6.Cg-Foxn1^nu/J—female—age 9 weeks) (NCI, Bethesda, Md.) according to the UT MDACC regulatory standards and IUCAC committee approval. Orthotopic tumors were developed with luciferase-labeled cells (0.25×10^6). IgG (Cat #OB010701; Southern Biotech, Birmingham, Ala.) served as a control Ab.\nModel 1 (AsPC-1-Aggressive Cell Model)—Two weeks after the injection of the aggressive AsPC-1 cells, when the tumors weighed less than 0.5 g (as surgically confirmed from a parallel untreated group), mice (n=6) were treated with control or mAbs (5 mg each of AGR2/C4.4A mAb in combination/kg/body weight/twice a week/i.p) and with or without Gem (100 mg/kg body weight/once a week/i.p) until all of the control mice had died (seven weeks). Tumor weight and metastasis to liver and lung were compared between control and treated groups ex vivo at the end of the experiment."}, "AsPC-1 cells [2]": {"system": "AsPC-1 cells", "assay": "Apoptosis assay (Gem, rAGR2, antibodies)", "type": "cell-based", "conditions": "AsPC-1, 5 μM Gem", "method": "FIGS. 11A-D. Monoclonal antibodies developed bind respectively to AGR2 and C4.4A proteins and blocked their functions. From the endogenous lysate (SU86.86/Panc-1), AGR2 (18 kD) and C4.4A (50 kD) were identified by a panel of mAbs. […] Extra bands identified with the endogenous protein were re-confirmed with the recombinant protein. For apoptosis studies, AsPC-1 cells were treated without or with Gem (0.5 μM) and rAGR2 (100 nM) and with purified (A) AGR2 and (B) C4.4A Abs (1 μM). Commercially available Abs served as control. […] Horizontal line represents median apoptotic value. Data shown are mean±SE for 3 experiments (*p<0.05). (C,D) Binding assays were conducted with purified (C) AGR2 and (D) C4.4A Abs as selected from the apoptosis assay as having high blocking efficiency. ELISA assays were conducted by coating antigenic peptide (0.5 μg) and probed with respective purified Abs. Data shown are mean±SE for 3 experiments (*p <0.05). Based on high specificity and binding, clone 28B for AGR2 and 1A for C4.4A were selected. Purified Abs were also run on 4-20% gradient gel to check for the presence of heavy (50 kD) and light chains (25 kD).\nCell growth, migration, invasion and apoptosis assays. Wild-type and siRNA transfected PDAC cells were grown with rAGR2 (0-500 nM) in the presence and absence of antibodies (polyclonal commercial or newly developed mAbs) (1 μM). The medium was refreshed daily. […]"}},
  "data": [
    {"smiles": "Nc1ccn([C@@H]2O[C@H](CO)[C@@H](O)C2(F)F)c(=O)n1", "note": "[Gem, Gemcitabine, reference compound]", "values": [
      {"measurement": "increase in apoptosis", "setting": "BxPC-3 cells", "result": 1, "unit": "fold"},
      {"measurement": "effect on tumor growth and metastasis incidence", "setting": "AsPC-1 cells [1]; Gem 100 mg/kg once a week i.p., alone or in combination with the mAbs", "result": "no significant effect"},
      {"measurement": "mice remained alive", "setting": "AsPC-1 cells [1]; after four weeks of treatment (six weeks total), when all control Ab mice had died", "result": 30, "unit": "%"},
      {"measurement": "increase in apoptosis", "setting": "AsPC-1 cells [2]", "result": 3, "unit": "fold"}
    ]}
  ]
}
